Source: patent US20050197338A1, “Substituted pyrazole urea compounds for the treatment of inflammation” (priority 2003, published 2005)

These compounds were tested against T1, human IKK-2 (rhIKK-2 homodimer) (Homo sapiens, UniProt O14920) (assay: IKK-2 Resin Enzyme Assay (Human IKK-2 Enzyme Assay)). Settings: human IKK-2, resin enzyme assay; read-out: IC50 (μM) hIKK-2.
T1 construct: FLAG (DYKDDDDKD) (C); made in house; host or cells: insect cells (baculovirus, pFastBac)
T1 sequence (O14920 1-756): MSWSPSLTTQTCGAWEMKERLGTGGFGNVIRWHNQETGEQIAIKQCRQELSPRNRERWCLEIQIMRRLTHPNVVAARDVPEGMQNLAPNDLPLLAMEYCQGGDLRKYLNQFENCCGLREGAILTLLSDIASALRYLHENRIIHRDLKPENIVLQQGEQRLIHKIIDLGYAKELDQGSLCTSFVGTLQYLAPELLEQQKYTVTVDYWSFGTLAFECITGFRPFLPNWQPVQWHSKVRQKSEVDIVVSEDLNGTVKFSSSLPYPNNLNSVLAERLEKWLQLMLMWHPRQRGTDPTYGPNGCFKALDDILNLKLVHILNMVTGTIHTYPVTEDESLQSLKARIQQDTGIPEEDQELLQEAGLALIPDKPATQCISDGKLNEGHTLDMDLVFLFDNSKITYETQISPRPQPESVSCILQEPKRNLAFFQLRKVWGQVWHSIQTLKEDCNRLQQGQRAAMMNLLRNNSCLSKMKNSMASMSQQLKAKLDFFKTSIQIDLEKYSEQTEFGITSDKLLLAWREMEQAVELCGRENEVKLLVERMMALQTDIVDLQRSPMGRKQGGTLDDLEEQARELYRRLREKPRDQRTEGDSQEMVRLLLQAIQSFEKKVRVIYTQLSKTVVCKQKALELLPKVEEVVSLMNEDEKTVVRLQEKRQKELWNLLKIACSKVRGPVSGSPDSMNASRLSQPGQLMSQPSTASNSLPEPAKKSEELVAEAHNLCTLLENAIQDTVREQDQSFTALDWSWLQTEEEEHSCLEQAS
Type: biochemical
How it was run: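 C-terminally FLAG-tagged human IKK-2 homodimer, baculovirus-expressed in insect cells and anti-FLAG purified. Reaction mix: 5 μM biotinylated IκBα peptide (Ser32/Ser36 region), 1 μM ATP with [γ-33P]ATP, 2 mM MgCl2, 2 mM MnCl2, 10 mM NaF, 1 mM DTT, 25 mM HEPES pH 7.6. Incubated 30 min at 25 °C; IC50 derived.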

Question: `Cc1cc(-n2cc(NC(N)=O)c(C(N)=O)n2)ccc1-c1ccccc1O` [Example 240, 1-(2′-Hydroxy-2-methyl-biphenyl-4-yl)-4-ureido-1H-pyrazole-3-carboxylic acid amide] was tested. Which IC50 did it give?
Answer: 2.02 µM

Question: With `NC(=O)Nc1cn(-c2cccc(Br)c2)nc1C(N)=O` [Example 20, 4-[(aminocarbonyl)amino]-1-(3-bromophenyl)-1H-pyrazole-3-carboxamide] as the compound, how does the IC50 read?
Answer: 0.61 µM

Question: Which IC50 does the source give for `Cc1cc(Sc2ccc(F)cc2)ccc1-n1cc(NC(N)=O)c(C(N)=O)n1` [Example 228, 4-[(aminocarbonyl)amino]-1-{4-[(4-fluorophenyl)thio]-2-methylphenyl}-1H-pyrazole-3-carboxamide] here?
Answer: > 20 µM

Question: Which IC50 does the source give for `CCOC(=O)c1cccc(-c2ccc(-n3cc(NC(N)=O)c(C(N)=O)n3)cc2)c1` [Example 144, ethyl 4′-{3-(aminocarbonyl)-4-[(aminocarbonyl)amino]-1H-pyrazol-1-yl}-1,1′-biphenyl-3-carboxylate] here?
Answer: 5.05 µM

Question: `CCN(CC)C(=O)COc1cccc(-c2ccc(-n3cc(NC(N)=O)c(C(N)=O)n3)cc2)c1` [Example 336, 4-[(aminocarbonyl)amino]-1-{3′-[2-(diethylamino)-2-oxoethoxy]-1,1′-biphenyl-4-yl}-1H-pyrazole-3-carboxamide] was tested. Which IC50 did it give?
Answer: 0.42 µM

Question: For `COc1ccc(CNC(=O)c2nn(-c3cccc(O)c3)cc2NC(N)=O)cc1` [Example 299, 1-(3-hydroxy-phenyl)-4-ureido-1H-pyrazole-3-carboxylic acid 4-methoxy-benzylamide], which IC50 is on record?
Answer: 0.595 µM

Question: Which IC50 does the source give for `NC(=O)Nc1nn(-c2ccc(-c3ccc(Cl)cc3Cl)cc2)cc1C(N)=O` [Example 134, 4-[(aminocarbonyl)amino]-1-(2′,4′-dichloro-1,1′-biphenyl-4-yl)-1-pyrazole-3-carboxamide] here?
Answer: 3.84 µM

Question: How did the IC50 turn out when `N#C/C=C/c1cccc(-c2ccc(-n3cc(NC(N)=O)c(C(N)=O)n3)cc2)c1` [Example 32, 4-[(aminocarbonyl)amino]-1-{3′-[(E)-2-cyanovinyl]-1,1′-biphenyl-4-yl}-1H-pyrazole-3-carboxamide] was run?
Answer: 1.16 µM

Question: How did the IC50 turn out when `COc1ccccc1-c1cccc(-n2cc(NC(N)=O)c(C(N)=O)n2)c1` [Example 88, 4-[(aminocarbonyl)amino]-1-(2′-methoxy-1,1′-biphenyl-3-yl)-1H-pyrazole-3-carboxamide] was run?
Answer: 3.2 µM

Question: How did the IC50 turn out when `NC(=O)Nc1nn(-c2ccc(-c3ccc(Cl)c(Cl)c3)cc2)cc1C(N)=O` [Example 136] was run?
Answer: > 20 µM

Question: `COC(=O)c1ccc(-n2cc(NC(N)=O)c(C(N)=O)n2)cc1` [Example 184, methyl 4-{3-(aminocarbonyl)-4-[(aminocarbonyl)amino]-1H-pyrazol-1-yl}benzoate] was tested. Which IC50 did it give?
Answer: 5.49 µM

Question: `NC(=O)Nc1cn(-c2cccc(-c3cccc(C(N)=O)c3)c2)nc1C(N)=O` [Example 79, 4-[(aminocarbonyl)amino]-1-[3′-(aminocarbonyl)-1,1′-biphenyl-3-yl]-1H-pyrazole-3-carboxamide] was tested. Which IC50 did it give?
Answer: 5.67 µM

Question: How did the IC50 turn out when `N#CCOc1ccccc1-c1ccc(-n2cc(NC(N)=O)c(C(N)=O)n2)cc1` [Example 167, 4-[(aminocarbonyl)amino]-1-[2′-(cyanomethoxy)-1,1′-biphenyl-4-yl]-1H-pyrazole-3-carboxamide] was run?
Answer: 0.5 µM

Question: Which IC50 does the source give for `NC(=O)Nc1cn(-c2ccc(-c3ccc(C(=O)NCc4ccc(F)cc4)c(F)c3)cc2)nc1C(N)=O` [Example 155, 4-[(aminocarbonyl)amino]-1-(3′-fluoro-4′-{[(4-fluorobenzyl)amino]carbonyl}-1,1′-biphenyl-4-yl)-1H-pyrazole-3-carboxamide] here?
Answer: 0.45 µM

Question: How did the IC50 turn out when `Cc1cc(-c2cccc(-n3cc(NC(N)=O)c(C(N)=O)n3)c2)ccc1F` [Example 346, 4-[(aminocarbonyl)amino]-1-(4′-fluoro-3′-methyl-1,1′-biphenyl-3-yl)-1H-pyrazole-3-carboxamide] was run?
Answer: > 20 µM

Question: For `COc1ccc(-c2cccc(-n3cc(NC(N)=O)c(C(N)=O)n3)c2)cc1F` [Example 359, 4-[(aminocarbonyl)amino]-1-(3′-fluoro-4′-methoxy-1,1′-biphenyl-3-yl)-1H-pyrazole-3-carboxamide], which IC50 is on record?
Answer: 1.18 µM

Question: Which IC50 does the source give for `CC(=O)c1ccccc1-c1cccc(-n2cc(NC(N)=O)c(C(N)=O)n2)c1` [Example 91, 1-(2′-acetyl-1,1′-biphenyl-3-yl)-4-[(aminocarbonyl)amino]-1H-pyrazole-3-carboxamide] here?
Answer: 3.45 µM

Question: With `NC(=O)Nc1cn(-c2cccc(-c3ccc(CO)cc3)c2)nc1C(N)=O` [Example 48, 4-[(aminocarbonyl)amino]-1-[4′-(hydroxymethyl)-1,1′-biphenyl-3-yl]-1H-pyrazole-3-carboxamide] as the compound, how does the IC50 read?
Answer: 1.04 µM

Question: Which IC50 does the source give for `NC(=O)Nc1cn(-c2cccc(-c3cccc(C(=O)NC4CC4)c3)c2)nc1C(N)=O` [Example 81] here?
Answer: 1.65 µM

Question: For `Cc1cnccc1-c1cccc(-n2cc(NC(N)=O)c(C(N)=O)n2)c1` [Example 69, 4-[(aminocarbonyl)amino]-1-[3-(3-methylpyridin-4-yl)phenyl]-1H-pyrazole-3-carboxamide], which IC50 is on record?
Answer: 0.65 µM

Question: How did the IC50 turn out when `COc1ccc(-c2cccc(-n3cc(NC(N)=O)c(C(N)=O)n3)c2)cc1` [Example 344, 4-[(aminocarbonyl)amino]-1-(4′-methoxy-1,1′-biphenyl-3-yl)-1H-pyrazole-3-carboxamide] was run?
Answer: > 20 µM

Question: How did the IC50 turn out when `NC(=O)Nc1cn(-c2ccc(Sc3ccccc3F)c(Cl)c2)nc1C(N)=O` [Example 270, 4-[(aminocarbonyl)amino]-1-{3-chloro-4-[(2-fluorophenyl)thio]phenyl}-1H-pyrazole-3-carboxamide] was run?
Answer: 3.7 µM

Question: With `NC(=O)Nc1cn(-c2ccc([S+]([O-])C3CCCCC3)cc2)nc1C(N)=O` (centres unmarked) [Example 191, 1-(3-carbamoyl-1-(4-(cyclohexylsulfinyl)phenyl)-1H-pyrazol-4-yl)urea] as the compound, how does the IC50 read?
Answer: 2.54 µM

Question: Which IC50 does the source give for `NC(=O)Nc1cn(-c2ccc(-c3cccc(O)c3)c(C(F)(F)F)c2)nc1C(N)=O` [Example 233, 4-[(aminocarbonyl)amino]-1-[3′-hydroxy-2-(trifluoromethyl)-1,1′-biphenyl-4-yl]-1H-pyrazole-3-carboxamide] here?
Answer: 0.375 µM

Question: For `COc1cccc(-c2cccc(-n3cc(NC(N)=O)c(C(N)=O)n3)c2)c1` [Example 343, 4-[(aminocarbonyl)amino]-1-(3′-methoxy-1,1′-biphenyl-3-yl)-1H-pyrazole-3-carboxamide], which IC50 is on record?
Answer: 5.18 µM

Question: How did the IC50 turn out when `NC(=O)Nc1cn(-c2cccc(-c3ccccc3CO)c2)nc1C(N)=O` [Example 87] was run?
Answer: 1.52 µM

Question: `CNC(=O)c1ccc(-c2ccc(-n3cc(NC(N)=O)c(C(N)=O)n3)cc2)cc1F` [Example 152, 4-[(aminocarbonyl)amino]-1-{3′-fluoro-4′-[(methylamino)carbonyl]-1,1′-biphenyl-4-yl}-1H-pyrazole-3-carboxamide] was tested. Which IC50 did it give?
Answer: 0.11 µM

Question: `CNC(=O)c1ccc(-c2cccc(-n3cc(NC(N)=O)c(C(N)=O)n3)c2)cc1` [Example 74, 4-[(aminocarbonyl)amino]-1-{4′-[(methylamino)carbonyl]-1,1′-biphenyl-3-yl}-1H-pyrazole-3-carboxamide] was tested. Which IC50 did it give?
Answer: 0.94 µM

Question: Which IC50 does the source give for `NC(=O)Nc1cn(-c2ccc(S(=O)(=O)C3CCCC3)cc2)nc1C(N)=O` [Example 287, 1-(3-carbamoyl-1-(4-(cyclopentylsulfonyl)phenyl)-1H-pyrazol-4-yl)urea] here?
Answer: 0.187 µM

Question: For `NC(=O)Nc1cn(-c2cccc(-c3ccc(F)c(Cl)c3)c2)nc1C(N)=O` [Example 361, 4-[(aminocarbonyl)amino]-1-(3′-chloro-4′-fluoro-1,1′-biphenyl-3-yl)-1H-pyrazole-3-carboxamide], which IC50 is on record?
Answer: > 20 µM

Question: `NC(=O)Nc1nn(-c2ccc(-c3ccc(F)c(F)c3)cc2)cc1C(N)=O` [Example 114] was tested. Which IC50 did it give?
Answer: 3.19 µM

Question: How did the IC50 turn out when `NC(=O)Nc1cn(-c2cc(Cl)ccc2F)nc1C(N)=O` [Example 246, 1-(5-chloro-2-fluoro-phenyl)-4-ureido-1H-pyrazole-3-carboxylic acid amide] was run?
Answer: 3.3 µM
